Where two headings read alike, the source gives them in different places.

For data set [1], the system named is respiratory syncytial virus. The conditions noted are these: cited from earlier work.
For another data set, the system named is RSV Long strain. Nature of the data set: Virus cytopathic effect (CPE) assay, anti-RSV activity in HEp-2 cells. In kind it is cell-based. The settings on record: human respiratory syncytial virus, 96 h, RSV Long strain 0.5 MOI, CellTiter-Glo after 4 days. How it is done: HEp-2 cells (ATCC CCL-23, human laryngeal carcinoma epithelial cells) were purchased from American Type Culture Collection and the culture conditions were as follows: 1% double antibody was added to Dulbecco modified Eagle medium (DMEM) medium containing 10% fetal bovine serum (FBS), and maintained in a 5% CO2 incubator and cultured at 37° C. To evaluate the anti-RSV activity of compounds, cells were seeded in a 96-well plate at a density of 5×10^3 cells/well in Hyclone™ (DMEM) containing 10% fetal bovine serum (FBS). The following day, cells were infected with a 0.5 MOI of RSV Long strain (ATCC) in the presence of 3-fold serial dilutions of compound to a total volume of 100 μL per well. The cell viability was evaluated by the cell counting kit CellTiter-Glo Reagent after 4 days. The fluorescence signal was read on a multi-mode microplate reader and the 50% effective concentration EC50 was determined by the fluorescence value. The RSV inhibition activities of the compounds involved in Examples 1 to 15 disclosed herein were evaluated according to the above method, and the results are shown in Table 3 below.

Data set [2] in a line: Pharmacokinetics in ICR mice, plasma drug concentrations. It counts as in vivo. The settings on record: for AUC(0-inf) / Cmax / Tmax / clearance / half-life / AUC(0-t) / Vd: ICR, mouse plasma; for AUC(0-t): read-out: AUC0-12; for Vd: read-out: Vss; for concentration at 0.083 h / concentration at 0.25 h / concentration at 0.5 h / concentration at 1 h / concentration at 2 h / concentration at 4 h / concentration at 8 h / concentration at 24 h / concentration at 12 h: mouse, plasma; for concentration at 0.083 h / concentration at 0.25 h / concentration at 0.5 h / concentration at 1 h / concentration at 2 h / concentration at 4 h / concentration at 8 h / concentration at 24 h / F / concentration at 12 h: ICR mice; for F: p.o. 10 mg/kg vs i.v. 2 mg/kg. As for the experimental part:
The pharmacokinetics were further tested of Example 4 and Example 7 disclosed herein and Example 61-1 (Comparative Example 1) in patent WO2013020993 in ICR mice. A single intravenous injection (dose of 2 mg/kg) and a single oral administration (dose of 10 mg/kg) were taken respectively. Blood collection point: before administration, 5 min, 15 min, 30 min, 1 h, 2 h, 4 h, 8 h, 12 h, 24 h after administration. The same method was applied to the pharmacokinetics of the above Comparative Example 1 in ICR mice, with a single intravenous injection (dose of 2 mg/kg) and a single oral administration (dose of 10 mg/kg) respectively.

On to `CC(C)C(=O)OC[C@@]1(CCl)O[C@@H](n2ccc(N)nc2=O)[C@H](F)[C@@H]1OC(=O)C(C)C` [ALS-8176], for which, in data set [1], the “volunteers with reduced respiratory syncytial virus load” value is given as “more than 85%”.

With `Cc1ccc2nc(N3CCS(=O)(=O)c4ccccc4C3)nc(N3CC(N)C3)c2c1` [Example 1, 4-(4-(3-Aminoazetidin-1-yl)-6-methylquinazolin-2-yl)-2,3,4,5-tetrahydrobenzo[f][1,4]thiazepine 1,1-dioxide], in the data set on RSV Long strain, the IC50 stood at 4.4 nM.

In the case of `Cc1ccc2nc(N3CCS(=O)(=O)c4ccccc4C3)nc(NCC3CNC3)c2c1` [Example 2, 4-(4-((Azetidin-3-ylmethyl)amino)-6-methylquinazolin-2-yl)-2,3,4,5-tetrahydrobenzo[f][1,4]thiazepine 1,1-dioxide], in the data set on RSV Long strain, it took 6.3 nM to reach half-maximal inhibition (IC50).

In the data set on RSV Long strain, `Cc1ccc2nc(N3CCS(=O)(=O)c4ccccc4C3)nc(N3CC(CN)(CO)C3)c2c1` [Example 3, 4-(4-(3-(Aminomethyl)-3-(hydroxymethyl)azetidin-1-yl)-6-methylquinazolin-2-yl)-2,3,4,5-tetrahydrobenzo[f][1,4]thiazepine 1,1-dioxide] displayed an IC50 of 5 nM.

Compound `NC1CN(c2nc(N3CCS(=O)(=O)c4ccccc4C3)nc3ccc(C(F)F)cc23)C1` [Example 4, 4-(4-(3-Aminoazetidin-1-yl)-6-(difluoromethyl)quinazolin-2-yl)-2,3,4,5-tetrahydrobenzo[f][1,4]thiazepine 1,1-dioxide] came in with an IC50 in the data set with RSV Long strain of 7 nM. Also, in data set [2] (iv, i.v. 2 mg/kg), the AUC(0-inf) turned out to be 1010 ng·h/mL, the peak concentration (Cmax) is 82.4 ng/mL, the Tmax amounted to 4 h and the clearance is 32.8 mL/min/kg. In addition, in data set [2] (iv, i.v. 2 mg/kg), the half-life is 3.4 h, the AUC(0-t) is 1010 ng·h/mL, the Vd amounted to 13.1 L/kg and the concentration at 0.083 h turned out to be 38 ng/mL. In data set [2] (iv, i.v. 2 mg/kg), this compound displayed a concentration at 0.25 h of 38.4 ng/mL, a concentration at 0.5 h of 30.7 ng/mL, a concentration at 1 h of 34.5 ng/mL and a concentration at 2 h of 43.9 ng/mL. For the same compound, in data set [2] (iv, i.v. 2 mg/kg), the concentration at 4 h was found to be 82.4 ng/mL, the concentration at 8 h stood at 62.8 ng/mL and the concentration at 24 h was 1.7 ng/mL. Further, in data set [2] (po, p.o. 10 mg/kg), the AUC(0-inf) came to 3780 ng·h/mL, the Cmax was determined as 505 ng/mL, the time to peak (Tmax) was 2 h and the half-life was 3.3 h. Further, in data set [2] (po, p.o. 10 mg/kg), the AUC(0-t) amounted to 3760 ng·h/mL, the concentration at 0.083 h is 49.7 ng/mL, the concentration at 0.25 h is 274 ng/mL and the concentration at 0.5 h came to 407 ng/mL. In addition, in data set [2] (po, p.o. 10 mg/kg), the concentration at 1 h amounted to 432 ng/mL, the concentration at 2 h came to 505 ng/mL, the concentration at 4 h came out at 380 ng/mL and the concentration at 8 h was 128 ng/mL. The concentration at 24 h in data set [2] (po, p.o. 10 mg/kg) is 5.4 ng/mL. The same compound showed a F in data set [2] of 74.6%.

Take `NCC1(CO)CN(c2nc(N3CCS(=O)(=O)c4ccccc4C3)nc3ccc(C(F)F)cc23)C1` [Example 5, 4-(4-(3-(Aminomethyl)-3-(hydroxymethyl)azetidin-1-yl)-6-(difluoromethyl)quinazolin-2-yl)-2,3,4,5-tetrahydrobenzo[f][1,4]thiazepine 1,1-dioxide]: in the data set with RSV Long strain, the IC50 stood at 7.9 nM.

Turning to `O=S1(=O)CCN(c2nc(NC3CNC3)c3cc(C(F)F)ccc3n2)Cc2ccccc21` [Example 6, 4-(4-(Azetidin-3-ylamino)-6-(difluoromethyl)quinazolin-2-yl)-2,3,4,5-tetrahydrobenzo[f][1,4]thiazepine 1,1-dioxide], the IC50 with RSV Long strain was 4.9 nM.

`NC1(CNc2nc(N3CCS(=O)(=O)c4ccccc4C3)nc3ccc(C(F)F)cc23)COC1` [Example 7, 4-(4-(((3-Aminooxetan-3-yl)methyl)amino)-6-(difluoromethyl)quinazolin-2-yl)-2,3,4,5-tetrahydrobenzo[f][1,4]thiazepine 1,1-dioxide] had an IC50 in the data set on RSV Long strain of 4.1 nM. Besides, in data set [2] (iv, i.v. 2 mg/kg), the AUC(0-inf) was 579 ng·h/mL, the highest level (Cmax) was 815 ng/mL, the Tmax was 0.08 h and the clearance was 57.6 mL/min/kg. For the same compound, in data set [2] (iv, i.v. 2 mg/kg), the half-life was 1.6 h, the AUC(0-t) is 573 ng·h/mL, the Vd turned out to be 3.33 L/kg and the concentration at 0.083 h was 815 ng/mL. In data set [2] (iv, i.v. 2 mg/kg), this compound came in with a concentration at 0.25 h of 540 ng/mL, a concentration at 0.5 h of 335 ng/mL, a concentration at 1 h of 128 ng/mL and a concentration at 2 h of 35 ng/mL. Also, in data set [2] (iv, i.v. 2 mg/kg), the concentration at 4 h worked out at 12.3 ng/mL, the concentration at 8 h was 2.7 ng/mL, the concentration at 12 h was 1.3 ng/mL and the concentration at 24 h stood at 1.5 ng/mL. In data set [2] (po, p.o. 10 mg/kg), the AUC(0-inf) came out at 481 ng·h/mL, the Cmax is 287 ng/mL, the time of peak concentration (Tmax) is 0.5 h and the half-life was 1.3 h. In data set [2] (po, p.o. 10 mg/kg), the AUC(0-t) was 476 ng·h/mL, the concentration at 0.083 h came out at 233 ng/mL, the concentration at 0.25 h is 262 ng/mL and the concentration at 0.5 h worked out at 287 ng/mL. Besides, in data set [2] (po, p.o. 10 mg/kg), the concentration at 1 h came out at 180 ng/mL, the concentration at 2 h is 50.1 ng/mL, the concentration at 4 h amounted to 16.7 ng/mL and the concentration at 8 h came out at 4.6 ng/mL. Besides, in data set [2] (po, p.o. 10 mg/kg), the concentration at 12 h was determined as 2.9 ng/mL and the concentration at 24 h was found to be 1.4 ng/mL. In data set [2], this compound had an F of 16.62%.

The compound `Cc1ccc2nc(N3CCS(=O)(=O)c4ccccc4C3)nc(NCC3(O)CNC3)c2c1` [Example 8, 4-(4-(((3-Hydroxyazetidin-3-yl)methyl)amino)-6-methylquinazolin-2-yl)-2,3,4,5-tetrahydrobenzo[f][1,4]thiazepine 1,1-dioxide] gave an IC50 in the data set with RSV Long strain of 2.9 nM. This counts as single-digit nanomolar.

Compound `Cc1ccc2nc(N3CCS(=O)(=O)c4ccccc4C3)nc(N3CCC(O)(CN)C3)c2c1` (stereo not shown) [Example 9, 4-(4-(3-(Aminomethyl)-3-hydroxypyrrolidin-1-yl)-6-methylquinazolin-2-yl)-2,3,4,5-tetrahydrobenzo[f][1,4]thiazepine 1,1-dioxide] yielded an IC50 in the data set on RSV Long strain of 0.9 nM.

In the data set with RSV Long strain, `Cc1ccc2nc(N3CCS(=O)(=O)c4ccccc4C3)nc(N3CC(O)(CN)C3)c2c1` [Example 10, 4-(4-(3-(Aminomethyl)-3-hydroxyazetidin-1-yl)-6-methylquinazolin-2-yl)-2,3,4,5-tetrahydrobenzo[f][1,4]thiazepine 1,1-dioxide] gave an IC50 of 3.3 nM.

`Cc1ccc2nc(N3CCS(=O)(=O)c4ccccc4C3)nc(N3CC(CN)C3)c2c1` [Example 11, 4-(4-(3-(Aminomethyl)azetidin-1-yl)-6-methylquinazolin-2-yl)-2,3,4,5-tetrahydrobenzo[f][1,4]thiazepine 1,1-dioxide]: the IC50 in the data set on RSV Long strain worked out at 1.2 nM.

For `Cc1ccc2nc(N3CCS(=O)(=O)c4ccccc4C3)nc(NC3CC(N)C3)c2c1` (stereo not shown) [Example 12, 4-(4-((3-Aminocyclobutyl)amino)-6-methylquinazolin-2-yl)-2,3,4,5-tetrahydrobenzo[f][1,4]thiazepine 1,1-dioxide], the IC50 with RSV Long strain was 1.7 nM.

In the case of `Cc1ccc2nc(N3CCS(=O)(=O)c4ccccc4C3)nc(N3CC(N)(CN)C3)c2c1` [Example 13, 4-(4-(3-Amino-3-(aminomethyl)azetidin-1-yl)-6-methylquinazolin-2-yl)-2,3,4,5-tetrahydrobenzo[f][1,4]thiazepine 1,1-dioxide], in the data set on RSV Long strain, the IC50 turned out to be 9.6 nM.

Regarding `Cc1ccc2nc(N3CCS(=O)(=O)c4ccccc4C3)nc(N[C@H]3CNC[C@@H]3O)c2c1` [Example 14, 4-(4-(((3S,4S)-4-hydroxypyrrolidin-3-yl)amino)-6-methylquinazolin-2-yl)-2,3,4,5-tetrahydrobenzo[f][1,4]thiazepine 1,1-dioxide], the IC50 in the data set with RSV Long strain stood at 1.3 nM. Against the preceding compound, the IC50 is about 7.4-fold lower.

In the data set on RSV Long strain, `Cc1ccc2nc(N3CCS(=O)(=O)c4ccccc4C3)nc(NC3CC4(CNC4)C3)c2c1` [Example 15, 4-(4-((2-azaspiro[3.3]heptan-6-yl)amino)-6-methylquinazolin-2-yl)-2,3,4,5-tetrahydrobenzo[f][1,4]thiazepine 1,1-dioxide] returned an IC50 of 3.7 nM.

Source of the values: patent publication US12582661B2, “Synthesis and application of class of respiratory syncytial virus inhibitors” (SHANGHAI ARK BIOPHARMACEUTICAL CO., LTD., priority 2020, dated 2026).
